Columns and labels:
Assay in all cases: relative viability (nuclei count vs DMSO), 5 days (fraction); higher = more cells survive
[1] = system: NCI-H1755
Outline: (§1)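 Five library-drug doses in √10 steps were combined with a fixed anchor-drug dose, or a single drug was given alone, by pin tool to lung cancer cell lines in 1536-well plates the day after seeding. Nuclei were stained and counted after 5 days. Relative viability is the nuclei count in treated wells over that in vehicle wells, taken as the median of duplicate plates.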

[2] = system: NCI-H1915
Outline: as §1

[3] = system: NCI-H1975
Outline: as §1

[4] = system: NCI-H2023
Outline: as §1

[5] = system: NCI-H2085
Outline: as §1

[6] = system: NCI-H2126
Outline: as §1

[7] = system: NCI-H3122
Outline: as §1

[8] = system: NCI-H322M
Outline: as §1

[9] = system: NCI-H358
Outline: as §1

[10] = system: NCI-H441
Outline: as §1

[11] = system: UMC-11
Outline: as §1

How did the relative viability ([1]; first compound 0.01 µM) turn out when `CCN(CC)CCCCNc1ncc2cc(-c3cc(OC)cc(OC)c3)c(NC(=O)NC(C)(C)C)nc2n1` + COc1cc2c(Oc3ccc(NC(=O)C4(C(=O)Nc5ccc(F)cc5)CC4)cc3F)ccnc2cc1OCCCN1CCOCC1 [Foretinib] (partner 0.25 µM) was run?
The relative viability was 0.986.

What about the relative viability ([1]; first compound 0.03162 µM) of the same compound?
The relative viability was 0.92.

And the relative viability ([1]; first compound 0.1 µM)?
The relative viability was 0.969.

What about the relative viability ([1]; first compound 0.3162 µM) of the same compound?
Its relative viability is 0.936.

What about the relative viability ([1]; first compound 1 µM) of the same compound?
The relative viability was 0.882.

And the relative viability ([2]; first compound 0.01 µM)?
The relative viability was 1.15.

And the relative viability ([2]; first compound 0.03162 µM)?
The relative viability was 1.24.

And the relative viability ([2]; first compound 0.1 µM)?
The relative viability was 1.13.

What about the relative viability ([2]; first compound 0.3162 µM) of the same compound?
Its relative viability is 1.27.

And the relative viability ([2]; first compound 1 µM)?
The relative viability was 1.15.

What about the relative viability ([3]; first compound 0.01 µM) of the same compound?
Its relative viability is 0.931.

What about the relative viability ([3]; first compound 0.03162 µM) of the same compound?
Its relative viability is 0.956.

And the relative viability ([3]; first compound 0.1 µM)?
The relative viability was 1.29.

What about the relative viability ([3]; first compound 0.3162 µM) of the same compound?
The relative viability was 1.04.

What about the relative viability ([3]; first compound 1 µM) of the same compound?
The relative viability was 0.867.

What about the relative viability ([4]; first compound 0.01 µM) of the same compound?
The relative viability was 0.954.

What about the relative viability ([4]; first compound 0.03162 µM) of the same compound?
The relative viability was 0.961.

What about the relative viability ([4]; first compound 0.1 µM) of the same compound?
The relative viability was 0.864.

And the relative viability ([4]; first compound 0.3162 µM)?
Its relative viability is 0.853.

And the relative viability ([4]; first compound 1 µM)?
The relative viability was 0.758.

What about the relative viability ([5]; first compound 0.01 µM) of the same compound?
The relative viability was 0.968.

What about the relative viability ([5]; first compound 0.03162 µM) of the same compound?
The relative viability was 0.821.

And the relative viability ([5]; first compound 0.1 µM)?
The relative viability was 1.

What about the relative viability ([5]; first compound 0.3162 µM) of the same compound?
The relative viability was 0.897.

What about the relative viability ([5]; first compound 1 µM) of the same compound?
Its relative viability is 0.866.

What about the relative viability ([6]; first compound 0.01 µM) of the same compound?
The relative viability was 1.37.

And the relative viability ([6]; first compound 0.03162 µM)?
Its relative viability is 1.3.

And the relative viability ([6]; first compound 0.1 µM)?
The relative viability was 1.14.

What about the relative viability ([6]; first compound 0.3162 µM) of the same compound?
Its relative viability is 1.22.

And the relative viability ([6]; first compound 1 µM)?
Its relative viability is 1.11.

And the relative viability ([7]; first compound 0.01 µM)?
The relative viability was 0.967.

What about the relative viability ([7]; first compound 0.03162 µM) of the same compound?
The relative viability was 0.927.

What about the relative viability ([7]; first compound 0.1 µM) of the same compound?
The relative viability was 1.08.

What about the relative viability ([7]; first compound 0.3162 µM) of the same compound?
Its relative viability is 1.05.

What about the relative viability ([7]; first compound 1 µM) of the same compound?
The relative viability was 1.02.

What about the relative viability ([8]; first compound 0.01 µM) of the same compound?
The relative viability was 0.991.

And the relative viability ([8]; first compound 0.03162 µM)?
The relative viability was 0.946.

And the relative viability ([8]; first compound 0.1 µM)?
The relative viability was 1.08.

And the relative viability ([8]; first compound 0.3162 µM)?
The relative viability was 1.01.

And the relative viability ([8]; first compound 1 µM)?
The relative viability was 0.966.

And the relative viability ([9]; first compound 0.01 µM)?
Its relative viability is 0.71.

And the relative viability ([9]; first compound 0.03162 µM)?
The relative viability was 0.638.

What about the relative viability ([9]; first compound 0.1 µM) of the same compound?
Its relative viability is 0.679.

And the relative viability ([9]; first compound 0.3162 µM)?
Its relative viability is 0.815.

And the relative viability ([9]; first compound 1 µM)?
Its relative viability is 0.625.

What about the relative viability ([10]; first compound 0.01 µM) of the same compound?
Its relative viability is 1.02.

And the relative viability ([10]; first compound 0.03162 µM)?
The relative viability was 1.19.

What about the relative viability ([10]; first compound 0.1 µM) of the same compound?
Its relative viability is 1.04.

What about the relative viability ([10]; first compound 0.3162 µM) of the same compound?
Its relative viability is 1.04.

And the relative viability ([10]; first compound 1 µM)?
Its relative viability is 0.918.

And the relative viability ([11]; first compound 0.01 µM)?
Its relative viability is 0.952.

What about the relative viability ([11]; first compound 0.03162 µM) of the same compound?
Its relative viability is 1.02.

And the relative viability ([11]; first compound 0.1 µM)?
Its relative viability is 1.14.

What about the relative viability ([11]; first compound 0.3162 µM) of the same compound?
Its relative viability is 1.19.

What about the relative viability ([11]; first compound 1 µM) of the same compound?
Its relative viability is 1.02.

Source: the supplement of paper PMC10307832
